Test results: BindingDB's records for doi:10.7270/Q2MP51PC (Pcmd, 2008)
pIC50: −log10 of the molar value.

Biological target: T1, Complement C1s subcomponent (Homo sapiens, UniProt P09871)
T1 sequence (P09871 whole entry): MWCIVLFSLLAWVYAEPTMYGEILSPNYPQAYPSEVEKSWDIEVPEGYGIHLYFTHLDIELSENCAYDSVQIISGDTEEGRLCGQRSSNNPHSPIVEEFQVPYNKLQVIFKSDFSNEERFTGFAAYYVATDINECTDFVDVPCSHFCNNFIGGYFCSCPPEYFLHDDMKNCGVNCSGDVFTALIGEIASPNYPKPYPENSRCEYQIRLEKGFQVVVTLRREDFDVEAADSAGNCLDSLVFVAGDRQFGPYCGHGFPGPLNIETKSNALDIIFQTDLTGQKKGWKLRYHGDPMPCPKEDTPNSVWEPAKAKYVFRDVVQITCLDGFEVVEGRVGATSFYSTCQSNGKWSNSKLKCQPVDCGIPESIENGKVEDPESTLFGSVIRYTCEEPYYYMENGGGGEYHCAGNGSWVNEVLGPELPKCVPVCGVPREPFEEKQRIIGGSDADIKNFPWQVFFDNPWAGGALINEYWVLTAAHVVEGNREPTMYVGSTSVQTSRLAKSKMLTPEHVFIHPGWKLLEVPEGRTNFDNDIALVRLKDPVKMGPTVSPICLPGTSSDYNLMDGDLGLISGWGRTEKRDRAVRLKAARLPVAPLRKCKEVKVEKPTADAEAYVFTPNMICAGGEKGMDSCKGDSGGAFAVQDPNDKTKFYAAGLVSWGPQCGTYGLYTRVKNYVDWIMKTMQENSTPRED
Test: C1s inhibitor IC50 values, dose response, biochemical (AID 787)

| SMILES | pIC50 |
| --- | --- |
| COC(=O)c1ccccc1NC(=O)c1cc(-c2ccc(OC)c(OC)c2)on1 [2-[[5-(3,4-dimethoxyphenyl)isoxazole-3-carbonyl]amino]benzoic acid methyl ester] | < 4.30 |
| O=C(Oc1ccc(-n2cnnn2)cc1)c1ccco1 [2-furancarboxylic acid [4-(1-tetrazolyl)phenyl] ester] | < 4.30 |
| CSc1nc(-c2ccco2)nn1C(=O)c1ccco1 [2-furanyl-[3-(2-furanyl)-5-(methylthio)-1,2,4-triazol-1-yl]methanone] | 5.31 |
| Cc1nc2scc(-c3cccs3)c2c(=O)o1 [2-methyl-5-(2-thienyl)thieno[2,3-d][1,3]oxazin-4-one] | < 4.30 |
| Cc1nc2sc(C(c3cccs3)N3CCN(Cc4ccccc4)CC3)c(O)n2n1 (centres undefined) [2-methyl-5-[[4-(phenylmethyl)-1-piperazinyl]-thiophen-2-ylmethyl]-6-thiazolo[3,2-b][1,2,4]triazolol] | < 4.30 |
| O=C(COC(=O)c1cnccn1)c1ccc(OC(=O)c2ccccc2)cc1 [2-pyrazinecarboxylic acid [2-(4-benzoyloxyphenyl)-2-oxoethyl] ester] | < 4.30 |
| CC(C)(C)c1cc(C(=O)NCc2ccccc2)ccn1 [2-tert-butyl-N-(phenylmethyl)-4-pyridinecarboxamide] | < 4.30 |
| COc1ccc(C(=O)SC2=NCCS2)cc1OC [3,4-dimethoxybenzenecarbothioic acid S-(4,5-dihydrothiazol-2-yl) ester] | < 4.30 |
| COc1cc(OC)cc(C(=O)Nc2ncc3c(n2)CC(C)CC3=O)c1 (centres undefined) [3,5-dimethoxy-N-(7-methyl-5-oxidanylidene-7,8-dihydro-6H-quinazolin-2-yl)benzamide] | < 4.30 |
| CCCc1nc2ccccc2c(=O)n1-c1c(C)n(C)n(-c2ccccc2)c1=O [3-(1,5-dimethyl-3-oxo-2-phenyl-4-pyrazolyl)-2-propyl-4-quinazolinone] | < 4.30 |
| O=C(Nc1nc(-c2cccs2)cs1)c1cccc(S(=O)(=O)N2CCCCCC2)c1 [3-(1-azepanylsulfonyl)-N-(4-thiophen-2-yl-2-thiazolyl)benzamide] | < 4.30 |
| Cc1cc(NC(=O)c2cccc(S(=O)(=O)N3CCCCCC3)c2)n(-c2ccccn2)n1 [3-(1-azepanylsulfonyl)-N-[5-methyl-2-(2-pyridinyl)-3-pyrazolyl]benzamide] | < 4.30 |
| CC1(C)C(c2ccccc2)=NC(c2cccnc2)N1O (centres undefined) [3-(1-hydroxy-5,5-dimethyl-4-phenyl-2H-imidazol-2-yl)pyridine] | < 4.30 |
| COc1ccccc1CN1CCCCC1c1cccnc1 (centres undefined) [3-(1-o-anisyl-2-piperidyl)pyridine] | < 4.30 |
| O=C(Nc1ccccn1)c1cccc(S(=O)(=O)N2CCCCC2)c1 [3-(1-piperidinylsulfonyl)-N-(2-pyridinyl)benzamide] | < 4.30 |
| O=C(Nc1nccs1)c1cccc(S(=O)(=O)N2CCCCC2)c1 [3-(1-piperidinylsulfonyl)-N-(2-thiazolyl)benzamide] | < 4.30 |
| O=C(Nc1nc(-c2cccs2)cs1)c1cccc(S(=O)(=O)N2CCCCC2)c1 [3-(1-piperidinylsulfonyl)-N-(4-thiophen-2-yl-2-thiazolyl)benzamide] | < 4.30 |
| O=C(NCc1cccs1)c1cccc(S(=O)(=O)N2CCCCC2)c1 [3-(1-piperidinylsulfonyl)-N-(thiophen-2-ylmethyl)benzamide] | < 4.30 |
| O=c1c(-c2ccco2)[n+]([O-])c2ccccc2n1OCc1ccccn1 [3-(2-furanyl)-4-oxido-1-(2-pyridinylmethoxy)-2-quinoxalin-4-iumone] | 4.42 |
| CCc1ccc(-c2cn(-c3nc(C)cc(C)n3)c(=N)o2)cc1 [3-(4,6-dimethyl-2-pyrimidinyl)-5-(4-ethylphenyl)-2-oxazolimine] | < 4.30 |
| CC1CCN(S(=O)(=O)c2cccc(C(=O)NCc3cccs3)c2)CC1 [3-(4-Methyl-piperidine-1-sulfonyl)-N-thiophen-2-ylmethyl-benzamide] | < 4.30 |
| CC(=O)N1CCN(C(=O)c2cccc(S(=O)(=O)Nc3ccc(C)cc3)c2)CC1 [3-(4-acetylpiperazine-1-carbonyl)-N-(4-methylphenyl)benzenesulfonamide] | < 4.30 |
| CC1CCN(S(=O)(=O)c2cccc(C(=O)Nc3nccs3)c2)CC1 [3-(4-methylpiperidin-1-yl)sulfonyl-N-(1,3-thiazol-2-yl)benzamide] | < 4.30 |
| O=C(Nc1nccs1)c1cccc(S(=O)(=O)N2CCOCC2)c1 [3-(4-morpholinylsulfonyl)-N-(2-thiazolyl)benzamide] | < 4.30 |
| Cc1csc(N(C(=O)c2cccc(S(=O)(=O)N(C)C)c2)c2ccccc2)n1 [3-(dimethylsulfamoyl)-N-(4-methyl-1,3-thiazol-2-yl)-N-phenyl-benzamide] | < 4.30 |

| SMILES | pIC50 |
| --- | --- |
| c1ccc(Cc2nn3c(COc4ccccc4)nnc3s2)cc1 [3-(phenoxymethyl)-6-(phenylmethyl)-[1,2,4]triazolo[3,4-b][1,3,4]thiadiazole] | < 4.30 |
| CCn1c(=O)c(C(C)=O)nc2ccccc21 [3-acetyl-1-ethyl-2-quinoxalinone] | < 4.30 |
| O=C(NC1=NCCS1)c1cccc(S(=O)(=O)N2CCCCC2)c1 [3-piperidinosulfonyl-N-(2-thiazolin-2-yl)benzamide] | < 4.30 |
| c1cncc(-c2nnc3n2N=C(c2cccs2)CS3)c1 [3-pyridin-3-yl-6-thiophen-2-yl-7H-[1,2,4]triazolo[3,4-b][1,3,4]thiadiazine] | < 4.30 |
| CCC(C)N1CC23C=CC(O2)C(C(=O)OCc2ccccc2)C3C1=O (centres undefined) [3-sec-Butyl-4-oxo-10-oxa-3-aza-tricyclo[5.2.1.0*1,5*]dec-8-ene-6-carboxylic acid benzyl ester] | < 4.30 |
| NC(=O)C1(N2CCCCC2)CCN(C(=O)Nc2ccccc2C(F)(F)F)CC1 [4-(1-piperidinyl)-N1-[2-(trifluoromethyl)phenyl]piperidine-1,4-dicarboxamide] | < 4.30 |
| COCCCNC(CC(=O)Nc1ccccc1C(=O)OC)C(=O)O (centres undefined) [4-(2-carbomethoxyanilino)-4-keto-2-(3-methoxypropylamino)butyric acid] | < 4.30 |
| CCOC(=O)N1CCN(C(=O)CN(c2cccc(C)c2)S(=O)(=O)c2ccc(C)cc2)CC1 [4-[2-(3-methyl-N-(4-methylphenyl)sulfonylanilino)-1-oxoethyl]-1-piperazinecarboxylic acid ethyl ester] | < 4.30 |
| CCCCn1c(-c2cc(Cl)ccc2OC)n[nH]c1=S [4-butyl-3-(5-chloro-2-methoxyphenyl)-1H-1,2,4-triazole-5-thione] | < 4.30 |
| CC(C)NS(=O)(=O)c1cc(C(=O)O)ccc1Cl [4-chloranyl-3-(propan-2-ylsulfamoyl)benzoic acid] | < 4.30 |
| O=C(Nc1nccs1)c1ccc(Cl)c(S(=O)(=O)N2CCOCC2)c1 [4-chloranyl-3-morpholin-4-ylsulfonyl-N-(1,3-thiazol-2-yl)benzamide] | < 4.30 |
| O=C(Nc1nccs1)c1ccc(Cl)c(S(=O)(=O)N2CCCCC2)c1 [4-chloranyl-3-piperidin-1-ylsulfonyl-N-(1,3-thiazol-2-yl)benzamide] | < 4.30 |
| O=C(Oc1ccc(Cl)cc1-n1c(O)ccc1O)c1ccco1 [4-chloro-2-(2,5-dioxo-1-pyrrolidinyl)phenyl 2-furoate] | < 4.30 |
| CCn1c(CCn2ccnc2C)n[nH]c1=S [4-ethyl-5-[2-(2-methyl-1H-imidazol-1-yl)ethyl]-2,4-dihydro-3H-1,2,4-triazole-3-thione] | < 4.30 |
| CCc1c(C(=O)NCc2cnn(C)c2)csc1C [4-ethyl-5-methyl-N-[(1-methyl-1H-pyrazol-4-yl)methyl]-3-thiophenecarboxamide] | < 4.30 |
| CCOC(=O)c1sc(NC(=O)c2cc(S(=O)(=O)N3CCOCC3)ccc2C)nc1C [4-methyl-2-[(2-methyl-5-morpholinosulfonyl-benzoyl)amino]thiazole-5-carboxylic acid ethyl ester] | < 4.30 |
| Cc1ccc(C(=O)Nc2nccs2)cc1S(=O)(=O)N1CCCCC1 [4-methyl-3-(1-piperidinylsulfonyl)-N-(2-thiazolyl)benzamide] | < 4.30 |
| Cc1csc(NC(=O)c2ccc(C)c(S(=O)(=O)N3CCCCC3)c2)n1 [4-methyl-N-(4-methyl-1,3-thiazol-2-yl)-3-piperidin-1-ylsulfonyl-benzamide] | < 4.30 |
| CC(=O)NC(=O)NC1CSCC1OC(C)=O (centres undefined) [4-{[(acetylamino)carbonyl]amino}tetrahydro-3-thienyl acetate] | < 4.30 |
| CCc1ccc(C2CC(c3ccccc3Cl)Nc3nc(N)nn32)cc1 (centres undefined) [5-(2-chlorophenyl)-7-(4-ethylphenyl)-1,5,6,7-tetrahydro-[1,2,4]triazolo[1,5-a]pyrimidin-2-amine] | < 4.30 |
| COc1ccc(CNC(=O)c2cc(-c3ccc(OC)c(OC)c3)on2)cc1 [5-(3,4-dimethoxyphenyl)-N-(4-methoxybenzyl)isoxazole-3-carboxamide] | < 4.30 |
| CC(C)NC(=O)c1cc(-c2ccc(Br)cc2)on1 [5-(4-bromophenyl)-N-isopropyl-isoxazole-3-carboxamide] | < 4.30 |
| Cc1ccc(-c2cc(C(=O)NCc3ccccn3)no2)cc1 [5-(4-methylphenyl)-N-(2-pyridinylmethyl)-3-isoxazolecarboxamide] | < 4.30 |
| Cc1ccccc1S(=O)(=O)Cc1ccc(C(=O)NCc2cccnc2)o1 [5-(o-tolylsulfonylmethyl)-N-(3-pyridylmethyl)-2-furamide] | < 4.30 |
